Results as given in patent US6440903B1, “Substituted 2,4-diamino-1,3,5-triazines as herbicides” (Bayer Aktiengesellschaft, priority 1996, dated 2002).
Blank lines part the entries; values can stand above or below the molecule they belong to.

Tests used:
[1] = system: Amaranthus; test: Pre-emergence test; type: in vivo; settings: greenhouse, 1000 g of ai./ha, scored after three weeks
Protocol: (§1) Pre-emergence Test Solvent: 5 parts by weight of acetone Emulsifier: 1 part by weight of alkylaryl polyglycol ether To produce a suitable preparation of active compound, 1 part by weight of active compound is mixed with the stated amount of solvent, the stated amount of emulsifier is added and the concentrate is diluted with water to the desired concentration. Seeds of the test plants are sown in normal soil. After about 24 hours, the soil is watered with the preparation of active compound. The amount of water per unit area is advantageously kept constant. The concentration of active compound in the preparation is immaterial, only the application rate of active compound per unit area matters. After three weeks, the degree of damage to the plants is scored visually in % damage in comparison to the development of the untreated control. The figures denote: 0%=no effect (like untreated control) 100%=total destruction

[2] = system: Veronica; test: Pre-emergence test; type: in vivo; settings: greenhouse, scored after three weeks
Protocol: as §1

[3] = system: Solanum; test: Pre-emergence test; type: in vivo; settings: greenhouse, scored after three weeks
Protocol: as §1

[4] = system: Cotton; test: Pre-emergence test; type: in vivo; settings: greenhouse, scored after three weeks
Protocol: as §1

[5] = system: Wheat; test: Pre-emergence test; type: in vivo; settings: greenhouse, scored after three weeks
Protocol: as §1

[6] = system: Digitaria; test: Pre-emergence test; type: in vivo; settings: greenhouse, 1000 g of ai./ha, scored after three weeks
Protocol: as §1

[7] = system: Echinochloa; test: Pre-emergence test; type: in vivo; settings: greenhouse, scored after three weeks
Protocol: as §1

[8] = system: Setaria; test: Pre-emergence test; type: in vivo; settings: greenhouse, scored after three weeks
Protocol: as §1

[9] = system: Polygonum; test: Pre-emergence test; type: in vivo; settings: greenhouse, scored after three weeks
Protocol: as §1

[10] = system: Amaranthus; test: Post-emergence test; type: in vivo; settings: Amaranthus, 504 h, greenhouse, 1000 g of ai./ha, scored after three weeks, read-out: % damage, Amaranthus
Protocol: (§2) Post-emergence Test Solvent: 5 parts by weight of acetone Emulsifier: 1 part by weight of alkylaryl polyglycol ether To produce a suitable preparation of active compound, 1 part by weight of active compound is mixed with the stated amount of solvent, the stated amount of emulsifier is added and the concentrate is diluted with water to the desired concentration. Test plants which have a height of 5-15 cm are sprayed with the preparation of active compound such that the particular amounts of active compounds desired are applied per unit area. The concentration of the spray liquor is chosen so that the particular amounts of active compound desired are applied in 1000 l of water/ha. After three weeks, the degree of damage to the plants is scored visually in % damage in comparison to the untreated control. The Figures Denote: 0%=no effect (like untreated control) 100%=total destruction

[11] = system: Setaria; test: Post-emergence test; type: in vivo; settings: Setaria, 504 h, greenhouse, scored after three weeks, read-out: % damage, Setaria; for pest or weed control at 1000 g/ha: 1000 g of ai./ha
Protocol: as §2

[12] = system: Avena fatua; test: Post-emergence test; type: in vivo; settings: greenhouse, 1000 g of ai./ha, scored after three weeks
Protocol: as §2

[13] = system: Sinapis; test: Post-emergence test; type: in vivo; settings: greenhouse, 1000 g of ai./ha, scored after three weeks
Protocol: as §2

[14] = system: Abutilon; test: Post-emergence test; type: in vivo; settings: greenhouse, 1000 g of ai./ha, scored after three weeks
Protocol: as §2

[15] = system: Alopecurus; test: Post-emergence test; type: in vivo; settings: greenhouse, 1000 g of ai./ha, scored after three weeks
Protocol: as §2

[16] = system: Maize; test: Post-emergence test; type: in vivo; settings: greenhouse, scored after three weeks
Protocol: as §2

[17] = system: Maize; test: Pre-emergence test; type: in vivo; settings: greenhouse, 1000 g of ai./ha, scored after three weeks
Protocol: as §1

[18] = system: Sinapis; test: Pre-emergence test; type: in vivo; settings: greenhouse, 1000 g of ai./ha, scored after three weeks
Protocol: as §1

[19] = system: Abutilon; test: Pre-emergence test; type: in vivo; settings: greenhouse, 1000 g of ai./ha, scored after three weeks
Protocol: as §1

[20] = system: Galium; test: Post-emergence test; type: in vivo; settings: greenhouse, 1000 g of ai./ha, scored after three weeks
Protocol: as §2

[21] = system: weeds; test: Pre-emergence test (summary in text); type: in vivo; settings: result in words
Protocol: Solvent: 5 parts by weight of acetone
Emulsifier: 1 part by weight of alkylaryl polyglycol ether
To produce a suitable preparation of active compound, 1 part by weight of active compound is mixed with the stated amount of solvent, the stated amount of emulsifier is added and the concentrate is diluted with water to the desired concentration.
Seeds of the test plants are sown in normal soil. After about 24 hours, the soil is watered with the preparation of active compound. The amount of water per unit area is advantageously kept constant. The concentration of active compound in the preparation is immaterial, only the application rate of active compound per unit area matters.
After three weeks, the degree of damage to the plants is scored visually in % damage in comparison to the development of the untreated control.
0%=no effect (like untreated control)

[22] = system: Viola; test: Post-emergence test; type: in vivo; settings: 504 h, greenhouse, 125 g of ai./ha, scored after three weeks, read-out: % damage, Viola
Protocol: as §2

[23] = system: Datura; test: Post-emergence test; type: in vivo; settings: greenhouse, 125 g of ai./ha, scored after three weeks
Protocol: as §2

[24] = system: Chenopodium; test: Post-emergence test; type: in vivo; settings: Chenopodium, 504 h, greenhouse, 125 g of ai./ha, scored after three weeks, read-out: % damage, Chenopodium
Protocol: as §2

[25] = system: Polygonum; test: Post-emergence test; type: in vivo; settings: Polygonum, 504 h, greenhouse, 125 g of ai./ha, scored after three weeks, read-out: % damage, Polygonum
Protocol: as §2

[26] = system: Xanthium; test: Post-emergence test; type: in vivo; settings: greenhouse, 1000 g of ai./ha, scored after three weeks
Protocol: as §2

Compound: CC(Nc1nc(N)nc(C(C)(Cl)Cl)n1)c1ccc(Cl)cc1 (centres unmarked) [drawing 99]
% damage, Amaranthus [1]: 100% | % damage, Veronica ([2]; 1000 g of ai./ha): 100% | % damage, Solanum ([3]; 1000 g of ai./ha): 100% | % damage, Cotton ([4]; 1000 g of ai./ha): 0% | % damage, Wheat ([5]; 1000 g of ai./ha): 0% | % damage, Digitaria [6]: 100% | % damage, Echinochloa ([7]; 1000 g of ai./ha): 95%

Compound: CC(Nc1nc(N)nc(C(F)C(F)(F)F)n1)c1ccc(Cl)cc1 (centres unmarked) [drawing 101]
% damage, Amaranthus [1]: 100% | % damage, Setaria ([8]; 1000 g of ai./ha): 100% | % damage, Veronica ([2]; 1000 g of ai./ha): 100% | % damage, Solanum ([3]; 1000 g of ai./ha): 100% | % damage, Wheat ([5]; 1000 g of ai./ha): 0% | % damage, Digitaria [6]: 100% | % damage, Echinochloa ([7]; 1000 g of ai./ha): 100% | % damage, Polygonum ([9]; 1000 g of ai./ha): 100%

Compound: CC(Nc1nc(N)nc(C(F)(F)F)n1)c1ccc(Cl)cc1 (centres unmarked) [drawing 109]
pest or weed control at 1000 g/ha [10]: 100% | pest or weed control at 1000 g/ha [11]: 100% | % damage, Avena fatua [12]: 100% | % damage, Sinapis [13]: 100% | % damage, Abutilon [14]: 100% | % damage, Alopecurus [15]: 100%

Compound: COCc1nc(NC(C)=O)nc(NC(C)c2ccc(SC)cc2)n1 (centres unmarked) [drawing 143]
pest or weed control at 1000 g/ha [10]: 100% | pest or weed control at 1000 g/ha [11]: 100% | % damage, Maize ([16]; 1000 g of ai./ha): 0% | % damage, Sinapis [13]: 100%

Compound: CC(F)c1nc(N)nc(NC(C)c2ccc(Cl)cc2)n1 (centres unmarked) [drawing 94]
% damage, Amaranthus [1]: 100% | % damage, Maize [17]: 0% | % damage, Sinapis [18]: 100% | % damage, Abutilon [19]: 100%

Compound: CC(=O)Nc1nc(NC(C)c2ccc(Cl)cc2)nc(C(Cl)Cl)n1 (centres unmarked) [drawing 148]
pest or weed control at 1000 g/ha [10]: 100% | pest or weed control at 1000 g/ha [11]: 100% | % damage, Avena fatua [12]: 70% | % damage, Galium [20]: 70%

melting point: 152 °C
Compound: CC(Nc1nc(N)nc(C(Cl)Cl)n1)c1ccc(Cl)cc1 (centres unmarked) [Example 149]
activity against weeds [21]: strong activity

Compound: CC(F)c1nc(N)nc(NC(C)c2ccc(Cl)cc2)n1 (centres unmarked) [drawing 105]
pest or weed control at 125 g/ha ([11]; 125 g of ai./ha): 80% | % damage, Maize ([16]; 125 g of ai./ha): 20% | pest or weed control at 125 g/ha [22]: 100% | % damage, Datura [23]: 100% | pest or weed control at 125 g/ha [24]: 100% | pest or weed control at 125 g/ha [25]: 100%

Compound: CC(Cl)c1nc(N)nc(NC(C)c2ccc(Cl)cc2)n1 (centres unmarked) [drawing 100]
% damage, Setaria ([8]; 500 g of ai./ha): 95% | % damage, Veronica ([2]; 500 g of ai./ha): 100% | % damage, Solanum ([3]; 500 g of ai./ha): 100% | % damage, Cotton ([4]; 500 g of ai./ha): 0% | % damage, Wheat ([5]; 500 g of ai./ha): 0% | % damage, Echinochloa ([7]; 500 g of ai./ha): 100% | % damage, Polygonum ([9]; 500 g of ai./ha): 100%

Compound: COc1ccc(C(C)Nc2nc(NC(C)=O)nc(C(F)(F)F)n2)cc1 (centres unmarked) [drawing 149]
pest or weed control at 1000 g/ha [10]: 100% | pest or weed control at 1000 g/ha [11]: 100% | % damage, Abutilon [14]: 100% | % damage, Alopecurus [15]: 100% | % damage, Xanthium [26]: 100% | % damage, Galium [20]: 100%

Compound: CC(=O)Nc1nc(NC(C)c2ccc(Cl)cc2)nc(C(C)(Cl)Cl)n1 (centres unmarked) [drawing 103]
% damage, Amaranthus [1]: 100% | % damage, Setaria ([8]; 1000 g of ai./ha): 95% | % damage, Veronica ([2]; 1000 g of ai./ha): 100% | % damage, Solanum ([3]; 1000 g of ai./ha): 100% | % damage, Wheat ([5]; 1000 g of ai./ha): 0% | % damage, Digitaria [6]: 100% | % damage, Echinochloa ([7]; 1000 g of ai./ha): 100% | % damage, Polygonum ([9]; 1000 g of ai./ha): 100%
